Results from patent US9090593B2, “Bicyclic compounds as Pim inhibitors” (AMGEN INC., priority 2010, dated 2015).
Like-named read-outs stand apart in the source and are kept apart here.

Key:
[1] = target: T1, full length recombinant Pim-3 protein (Homo sapiens, UniProt Q86V86); test: Pim-3 enzyme assay (HTRF, phosphorylation of biotinylated-BAD (S112) peptide); assay type: biochemical; details: read-out: Pim3 IC50
T1 construct: by full length recombinant Pim-1, Pim-2, or Pim-3 protein; purchased Millipore (UK)
Method in brief: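 HTRF read-out, streptavidin-APC plus Eu-labelled anti-phospho-BAD (S112) antibody, measures BAD peptide phosphorylation by full-length recombinant Pim-3. Buffer: 60 mM Hepes pH 7.0, 2 mM DTT, 0.05% BSA; EDTA (3 mM) stop. Percent of control per well, IC50 by 4-parameter logistic fit.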

[2] = target: T2, Pim-1 stably transfected into the U2OS human osteogenic sarcoma line (Homo sapiens, UniProt P11309); test: Pim cell assay, phospho-BAD normalized against total BAD, U2OS stably transfected with Pim-1; assay type: cell-based; details: read-out: Pim1_Cell_IC50
T2 construct: expressed in transfected cells; host or cells: U2OS human osteogenic sarcoma line
Method in brief: (§1)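 Read-out is phospho-BAD relative to total BAD, by MSD electrochemiluminescence on lysates, expressed as % phosphoprotein = (2×phospho)/(phospho+total)×100. Engineered U2OS lines carrying stably transfected Pim-1 or Pim-2 received 10-point compound dilutions at 0.3% final DMSO after overnight culture at 37 °C; DMSO-only wells served as high control.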

[3] = target: T3, Pim-2 stably transfected into the U2OS human osteogenic sarcoma line (Homo sapiens, UniProt Q9P1W9); test: Pim cell assay, phospho-BAD normalized against total BAD, U2OS stably transfected with Pim-2; assay type: cell-based; details: read-out: Pim2_Cell_IC50; also: high dose 31.6 µM
T3 construct: expressed in transfected cells; host or cells: U2OS human osteogenic sarcoma line
Method in brief: as §1

[4] = target: T4, full length recombinant Pim-1 protein (Homo sapiens, UniProt P11309); test: Pim-1 enzyme assay (HTRF, phosphorylation of biotinylated-BAD (S112) peptide); assay type: biochemical; details: enzyme assay, Pim-1; read-out: Pim_1_IC50
T4 construct: by full length recombinant Pim-1, Pim-2, or Pim-3 protein; hexahistidine tag followed by a thrombin cleavage site (N); made in house; host or cells: Sf9 (baculovirus) or E. coli (pET28)
Method in brief: (§2)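 HTRF read-out: Eu-labelled anti-phospho-BAD (S112) antibody plus streptavidin-APC detect phosphorylated biotin-BAD peptide. Enzymes were full-length recombinant human Pim-1 and Pim-2; buffer 60 mM Hepes pH 7.0, 0.05% BSA, 2 mM DTT; reactions quenched with 3 mM EDTA. Percent-of-control data fitted to a 4-parameter logistic for IC50.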

[5] = target: T5, full length recombinant Pim-2 protein (Homo sapiens, UniProt Q9P1W9); test: Pim-2 enzyme assay (HTRF, phosphorylation of biotinylated-BAD (S112) peptide); assay type: biochemical; details: enzyme assay, Pim-2; read-out: Pim2_IC50
T5 construct: by full length recombinant Pim-1, Pim-2, or Pim-3 protein; hexahistidine tag followed by a thrombin cleavage site (N); made in house; host or cells: Sf9 (baculovirus) or E. coli (pET28)
Method in brief: as §2

[6] = U2OS cells stably transfected with Pim-1, phospho-BAD, high dose […]
[7] = U2OS cells stably transfected with Pim-2, phospho-BAD, high dose […]

T2 sequence (P11309 whole entry): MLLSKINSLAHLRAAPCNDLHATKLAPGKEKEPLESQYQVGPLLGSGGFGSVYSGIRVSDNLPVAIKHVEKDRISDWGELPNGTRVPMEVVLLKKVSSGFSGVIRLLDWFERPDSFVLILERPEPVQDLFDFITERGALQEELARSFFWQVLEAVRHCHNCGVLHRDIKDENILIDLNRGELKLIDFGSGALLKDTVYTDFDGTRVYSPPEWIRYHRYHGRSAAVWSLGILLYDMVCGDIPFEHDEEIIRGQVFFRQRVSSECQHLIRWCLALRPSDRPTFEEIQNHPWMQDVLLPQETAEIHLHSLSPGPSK
T4 sequence (P11309 whole entry): as above
T5 sequence (Q9P1W9 whole entry): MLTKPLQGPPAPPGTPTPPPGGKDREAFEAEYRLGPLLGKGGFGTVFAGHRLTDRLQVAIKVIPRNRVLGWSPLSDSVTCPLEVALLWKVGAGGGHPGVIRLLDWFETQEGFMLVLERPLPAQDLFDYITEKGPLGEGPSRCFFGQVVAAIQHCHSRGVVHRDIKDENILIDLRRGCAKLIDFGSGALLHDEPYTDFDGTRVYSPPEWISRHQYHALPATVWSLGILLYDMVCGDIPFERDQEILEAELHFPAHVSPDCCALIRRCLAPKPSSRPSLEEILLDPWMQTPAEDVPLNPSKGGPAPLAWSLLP
T3 sequence (Q9P1W9 whole entry): as above

| Structure (SMILES) | IC50 [1] [nM] | IC50 [2, 6] [nM] | IC50 [3, 7] [nM] | IC50 [4] [nM] | IC50 [5] [nM] | IC50 [2] [nM] | IC50 [3] [nM] |
| --- | --- | --- | --- | --- | --- | --- | --- |
| NC1CCN(c2cncc(-c3n[nH]c4ccc(-c5ccccn5)cc34)n2)CC1 [Example 88, 1-(6-(5-(2-pyridinyl)-1H-indazol-3-yl)-2-pyrazinyl)-4-piperidinamine] | 57 | 1190 | > 31600 | 48 | 685 |  |  |
| NC1CCN(c2cncc(-c3n[nH]c4ccc(N5CCCCC5)cc34)n2)CC1 [Example 90, 1-(6-(5-(1-piperidinyl)-1H-indazol-3-yl)-2-pyrazinyl)-4-piperidinamine] | 40 | 747 | > 31600 | 23 | 196 |  |  |
| CC(C)(C)C(=O)Nc1cccc(-c2ccc3[nH]nc(-c4cncc(N5CCC(N)CC5)n4)c3c2)n1 [Example 93, N-(6-(3-(6-(4-amino-1-piperidinyl)-2-pyrazinyl)-1H-indazol-5-yl)-2-pyridinyl)-2,2-dimethylpropanamide] | 82 | 487 | > 31600 | 13 | > 1000 |  |  |
| COc1ccc2c(-c3ccc4[nH]nc(-c5cncc(N6CCC(N)CC6)n5)c4c3)ccnc2c1 [Example 101, 1-(6-(5-(7-methoxy-4-quinolinyl)-1H-indazol-3-yl)-2-pyrazinyl)-4-piperidinamine] | 10 | 269 | > 31600 | 4 | 55 |  |  |
| COc1cncc(-c2ccc3[nH]nc(-c4cncc(O[C@@H]5CCCNC5)n4)c3c2)c1 [Example 114, 5-(5-methoxy-3-pyridinyl)-3-(6-((3R)-3-piperidinyloxy)-2-pyrazinyl)-1H-indazole] | 12 | 172 | 8500 | 6 | 77 |  |  |
| Fc1cncc(-c2ccc3[nH]nc(-c4cncc(O[C@@H]5CCCNC5)n4)c3c2)c1 [Example 115, 5-(5-fluoro-3-pyridinyl)-3-(6-((3R)-3-piperidinyloxy)-2-pyrazinyl)-1H-indazole] | 20 | 958 | > 31600 | 33 | 155 |  |  |
| CC(C)NC(=O)c1ccc(F)c(-c2ccc3[nH]nc(-c4cncc(O[C@@H]5CCCNC5)n4)c3c2)c1 [Example 122, 4-fluoro-N-(1-methylethyl)-3-(3-(6-((3R)-3-piperidinyloxy)-2-pyrazinyl)-1H-indazol-5-yl)benzamide] | 20 | 287 | 1850 | 16 | 14 |  |  |
| O=C(NC1CC1)c1cccc(-c2ccc3[nH]nc(-c4cncc(O[C@@H]5CCCNC5)n4)c3c2)c1 [Example 132, N-cyclopropyl-3-(3-(6-((3R)-3-piperidinyloxy)-2-pyrazinyl)-1H-indazol-5-yl)benzamide] | 14 | 245 | 3050 | 8 | 14 |  |  |
| c1cn2cc(-c3ccc4[nH]nc(-c5cncc(O[C@@H]6CCCNC6)n5)c4c3)ncc2n1 [Example 138, 6-(3-(6-((3R)-3-piperidinyloxy)-2-pyrazinyl)-1H-indazol-5-yl)imidazo[1,2-a]pyrazine] | 14 | 921 | > 31600 | 5 | 185 |  |  |
| O=C(NC1CC1)c1ccc(F)c(-c2ccc3[nH]nc(-c4cncc(O[C@@H]5CCCNC5)n4)c3c2)c1 [Example 139, N-cyclopropyl-4-fluoro-3-(3-(6-((3R)-3-piperidinyloxy)-2-pyrazinyl)-1H-indazol-5-yl)benzamide] | 12 | 454 | 3780 | 13 | 13 |  |  |

The next compounds have a lower IC50 [1] than those just listed; values first:

| IC50 [1] [nM] | IC50 [2, 6] [nM] | IC50 [3, 7] [nM] | IC50 [4] [nM] | IC50 [5] [nM] | IC50 [2] [nM] | IC50 [3] [nM] | Structure (SMILES) |
| --- | --- | --- | --- | --- | --- | --- | --- |
| 8 | 208 | 9240 | 7 | 25 |  |  | CN1CCOc2cc(-c3ccc4[nH]nc(-c5cncc(O[C@@H]6CCCNC6)n5)c4c3)cnc21 [Example 130, 4-methyl-7-(3-(6-((3R)-3-piperidinyloxy)-2-pyrazinyl)-1H-indazol-5-yl)-3,4-dihydro-2H-pyrido[3,2-b][1,4]oxazine] |
| 6 | 563 | > 31600 | 13 | 161 |  |  | CC(C)c1ccnc(-c2ccc3[nH]nc(-c4cncc(O[C@@H]5CCCNC5)n4)c3c2)n1 [Example 126, 5-(4-(1-methylethyl)-2-pyrimidinyl)-3-(6-((3R)-3-piperidinyloxy)-2-pyrazinyl)-1H-indazole] |
| 6 | 1020 | > 31600 | 13 | 67 |  |  | c1cc(C2CC2)nc(-c2ccc3[nH]nc(-c4cncc(O[C@@H]5CCCNC5)n4)c3c2)n1 [Example 127, 5-(4-cyclopropyl-2-pyrimidinyl)-3-(6-((3R)-3-piperidinyloxy)-2-pyrazinyl)-1H-indazole] |
| 6 | 435 | 7840 | 5 | 17 |  |  | Fc1ccccc1-c1ccc2[nH]nc(-c3cncc(O[C@@H]4CCCNC4)n3)c2c1 [Example 133, 5-(2-fluorophenyl)-3-(6-((3R)-3-piperidinyloxy)-2-pyrazinyl)-1H-indazole] |
| 5 | 569 | > 31600 | 12 | 43 |  |  | NC1CCN(c2cncc(-c3n[nH]c4ccc(-c5cncnc5)cc34)n2)CC1 [Example 87, 1-(6-(5-(5-pyrimidinyl)-1H-indazol-3-yl)-2-pyrazinyl)-4-piperidinamine] |
| 5 |  |  | 9 | 57 | 2230 | > 31600 | CN1CCN(c2ccc3[nH]nc(-c4cncc(N5CCC(N)CC5)n4)c3c2)C1=O [Example 92, 1-(3-(6-(4-amino-1-piperidinyl)-2-pyrazinyl)-1H-indazol-5-yl)-3-methyl-2-imidazolidinone] |
| 5 | 4720 | > 31600 | 3 | 57 |  |  | NC1CCN(c2cncc(-c3n[nH]c4ccc(-c5cn6ccnc6cn5)cc34)n2)CC1 [Example 99, 1-(6-(5-imidazo[1,2-a]pyrazin-6-yl-1H-indazol-3-yl)-2-pyrazinyl)-4-piperidinamine] |
| 5 | 157 | 3010 | 3 | 23 |  |  | c1cc2cc(-c3ccc4[nH]nc(-c5cncc(O[C@@H]6CCCNC6)n5)c4c3)cnc2[nH]1 [Example 121, 3-(6-((3R)-3-piperidinyloxy)-2-pyrazinyl)-5-(1H-pyrrolo[2,3-b]pyridin-5-yl)-1H-indazole] |
| 5 | 151 | 8910 | 2 | 15 |  |  | COc1cccc(-c2ccc3[nH]nc(-c4cncc(O[C@@H]5CCCNC5)n4)c3c2)c1F [Example 131, 5-(2-fluoro-3-methoxyphenyl)-3-(6-((3R)-3-piperidinyloxy)-2-pyrazinyl)-1H-indazole] |
| 3 | 384 | > 31600 | 5 | 82 |  |  | NC1CCN(c2cncc(-c3n[nH]c4ccc(-c5ccc6cc[nH]c6n5)cc34)n2)CC1 [Example 95, 1-(6-(5-(1H-pyrrolo[2,3-b]pyridin-6-yl)-1H-indazol-3-yl)-2-pyrazinyl)-4-piperidinamine] |
| 3 | 199 | 5000 | 2 | 20 |  |  | NC1CCN(c2cncc(-c3n[nH]c4ccc(-c5ccncc5)cc34)n2)CC1 [Example 102, 1-(6-(5-(4-pyridinyl)-1H-indazol-3-yl)-2-pyrazinyl)-4-piperidinamine] |
| 2 | 1250 | > 31600 | 1 | 18 |  |  | Nc1cc(-c2ccc3[nH]nc(-c4cncc(N5CCC(N)CC5)n4)c3c2)ccn1 [Example 100, 4-(3-(6-(4-amino-1-piperidinyl)-2-pyrazinyl)-1H-indazol-5-yl)-2-pyridinamine] |
| 1 | 3030 | > 31600 | 3 | 27 |  |  | Nc1ncc(-c2ccc3[nH]nc(-c4cncc(N5CCC(N)CC5)n4)c3c2)cn1 [Example 97, 5-(3-(6-(4-amino-1-piperidinyl)-2-pyrazinyl)-1H-indazol-5-yl)-2-pyrimidinamine] |
